# According to patent US10988523B2, “Modified lipidated Relaxin B chain peptides and their therapeutic use” (Sanofi, priority 2018, dated 2021):
# Read-outs that look alike come from different tables or passages of the source. *1 amine or outer side, *2 acyl side, *3 side chain or, on linkers, in order; H or OH if unused. Where a SMILES comes first, the peptide text is derived from it. Side-chain parts run from the residue outwards. [ ]: non-standard residue; d: D form. The star is where a group is joined. X2 = CCCCCCCCCCCCCCCCCC(=O)N[C@@H](CCC(=O)N[C@@H](CCC(=O)N[C@@H](CCC(=O)NCCCC[C@H](NC(=O)COCC(=O)NCCCOCCOCCOCCCNC(=O)COCC(=O)NCCCOCCOCCOCCCNC(=O)COCC(=O)NCCCOCCOCCOCCCN*)C(N)=O)C(=O)O)C(=O)O)C(=O)O; X7 = CCCCCCCCCCCCCCCCCC(=O)N[C@@H](CCC(=O)N[C@@H](CCC(=O)N[C@@H](CCC(=O)NCCCOCCOCCOCCCNC(=O)COCC(=O)NCCCOCCOCCOCCCNC(=O)COCC(=O)*)C(=O)O)C(=O)O)C(=O)O; PEG12 = NCCOCCOCCOCCOCCOCCOCCOCCOCCOCCOCCOCCOCCC(=O)O; γGlu = O=C(O)[C@H](CCC(=O)[*:2])N[*:1]; Stearoyl = CCCCCCCCCCCCCCCCCC(=O)*; Palmitoyl = CCCCCCCCCCCCCCCC(=O)*; Nle = CCCC[C@H](N)C(=O)O; AEEA = NCCOCCOCC(=O)O; Aib = CC(C)(N)C(=O)O
# Columns and labels:
# [1] = Pharmacokinetic (PK) determination after i.v. or s.c. administration to rats; format: in vivo, Sprague Dawley rats; conditions: Sprague Dawley, Rat PK; for C0 / half-life: iv, 1 mg/kg i.v.; for C0: extrapolated plasma concentration at t=0, read-out: C0; for half-life / Cmax / Tmax / bioavailability: plasma; for half-life: read-out: T½ (converted); for Cmax / Tmax: sc, 3 mg/kg s.c.; for bioavailability: subcutaneous, 3 mg/kg s.c. vs 1 mg/kg i.v., dose-corrected AUC ratio
# Summary of the method: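 Non-compartmental analysis of plasma LC/MS data (protein precipitation, BLQ taken as zero) gave T½, C0 (i.v.), Cmax/Tmax (s.c.) and F% from dose-corrected AUCs. Dosing: 3 mg/kg s.c. or 1 mg/kg i.v. in PBS to Sprague Dawley rats, purity- and salt-corrected.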
# [2] = Solubility testing of peptides in buffer; format: physicochemical
# Procedure: Prior to the testing of solubility of a peptide batch, its purity (HPLC-UV) was determined.
# Acetate Buffer 50 mM pH4.5: 0.75 g […], 3H2O (Sigma 57545)+0.35 ml CH3CO2H 100% solution dissolved in Millipore water, adjusted to pH with diluted (1:1) CH3CO2H and diluted to 250 ml with Millipore water.
# In a 4 ml Ependorph vial, an accurately weighed sample of compound was diluted in study media to obtain target concentration of 2, 6 or 10 mg/ml of pure compound. The sample vials were shacked (rock 'roll shaker) for ˜19 h. 3004, Aliquots ( ) were filtered through a Millipore “Solvinert” plate (0.45 μm—PTFE hydrophilic).
# pH was measured with a micro electrode
# Waters Acquity UPLC System with DAD detector
# Column: Waters Peptide Column CSH C18 (130 Å; 1.7 μm; 50*2.1 mm)
# Column temperature: 60° C.
# Full loop (about 5 μL)—overfill factor 5
# Weak et Strong wash: H2O/ACN (75/25; V/V); Seal wash: H2O/IsOH (95/5; V/V). Mobile phase:
# Solvent A: 0.05% TFA in H2O; Solvent B: 0.035% TFA in CH3CN
# Gradient: from 0 to 12 min B=2% to 60%, from 12 to 14 min B=60% to 100%. Column washing 100% B 1 min, column equilibration 2% B 2.5 min.
# UV detector: wavelength: 220 nm.
# RXFP1 = molecular target: T1, RXFP1 (Homo sapiens, UniProt Q9HBX9); assay: OVCAR5 cAMP assay (HTRF), RXFP1 agonist activity; format: cell-based; conditions: for EC50: OVCAR5 cells, cAMP HTRF, read-out: EC50 (nM), OVCAR 5 cells (cAMP); for Emax: OVCAR-5, maximal cAMP relative to H2-relaxin maximum (100%), read-out: EMax, OVCAR 5 cells (cAMP)
# T1 construct: OVCAR5 cells expressing endogenous RXFP1; endogenous in cells; host or cells: OVCAR5 cells
# T1 sequence (Q9HBX9 1-757): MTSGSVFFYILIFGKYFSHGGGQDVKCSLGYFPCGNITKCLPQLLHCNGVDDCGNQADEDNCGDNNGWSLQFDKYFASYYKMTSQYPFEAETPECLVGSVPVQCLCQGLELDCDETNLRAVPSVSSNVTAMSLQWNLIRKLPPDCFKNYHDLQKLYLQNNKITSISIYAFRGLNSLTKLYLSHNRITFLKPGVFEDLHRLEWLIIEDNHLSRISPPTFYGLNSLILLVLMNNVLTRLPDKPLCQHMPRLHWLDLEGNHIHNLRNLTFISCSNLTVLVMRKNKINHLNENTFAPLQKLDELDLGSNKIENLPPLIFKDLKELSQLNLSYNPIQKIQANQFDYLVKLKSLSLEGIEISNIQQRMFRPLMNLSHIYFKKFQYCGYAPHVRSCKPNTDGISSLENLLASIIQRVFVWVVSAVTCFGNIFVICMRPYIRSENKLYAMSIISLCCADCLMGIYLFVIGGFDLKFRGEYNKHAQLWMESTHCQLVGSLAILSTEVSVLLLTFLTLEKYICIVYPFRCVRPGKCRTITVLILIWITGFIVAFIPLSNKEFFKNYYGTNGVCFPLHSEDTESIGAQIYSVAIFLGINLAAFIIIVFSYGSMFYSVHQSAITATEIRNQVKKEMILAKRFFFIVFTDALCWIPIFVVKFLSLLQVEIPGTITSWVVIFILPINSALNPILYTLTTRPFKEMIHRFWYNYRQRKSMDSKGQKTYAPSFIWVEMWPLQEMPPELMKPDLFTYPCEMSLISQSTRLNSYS
# Summary of the method: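 cAMP accumulation readout: after 1 mM IBMX for 40 min, endogenous-RXFP1 OVCAR5 cells got rising peptide concentrations without FCS, 30 min, 37° C, then lysis with HTRF cAMP reagents. Nonlinear regression gave EC50; Emax expressed relative to H2-relaxin maximum, same occasion.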
# [3] = acetate buffer, pH 4.5, read-out: Solubility Acetate buffer pH 4.5
# [4] = phosphate buffer, pH 7.4, read-out: Solubility phosphate buffer pH 7.4
C0 [1] [nM],half-life [1] [h],Cmax [1] [nM],Tmax [1] [h],bioavailability [1] [%],"solubility ([2]; phosphate buffer 50 mM pH 7.4, target solubility 2.0 mg/ml, read-out: Solubility phosphate buffer pH 7.4) [µg/mL]",EC50 (RXFP1) [nM],Emax (RXFP1) [%],"solubility [2, 3] [µg/mL]","solubility [2, 4] [µg/mL]",Compound
4000,3.4,1500,6,93,> 2100,0.04,88,,,CCCCCCCCCCCCCCCCCC(=O)N[C@@H](CCC(=O)N[C@@H](CCC(=O)N[C@@H](CCC(=O)NCCCC[C@H](NC(=O)COCCOCCNC(=O)COCCOCCNC(=O)COCCOCCNC(=O)[C@H](CCCCNC(C)=O)NC(=O)[C@H](CCCCN)NC(=O)[C@H](CCCNC(=N)N)NC(=O)C(C)(C)NC(=O)[C@H](CO)NC(=O)[C@H](Cc1c[nH]c2ccccc12)NC(=O)[C@@H](NC(=O)[C@H](CO)NC(=O)[C@H](CCCC)NC(=O)CNC(=O)[C@H](CCC(=O)O)NC(=O)C(C)(C)NC(=O)C(C)(C)NC(=O)[C@@H](NC(=O)[C@H](CCCCNC(C)=O)NC(=O)[C@H](C)NC(=O)[C@H](CCCNC(=N)N)NC(=O)[C@@H](NC(=O)[C@H](CCCCN)NC(=O)[C@H](CCC(=O)O)NC(=O)[C@H](CCCNC(=N)N)NC(=O)CNC(=O)[C@H](CCC(=O)O)NC(=O)[C@H](CC(C)C)NC(C)=O)C(C)C)[C@@H](C)CC)[C@@H](C)O)C(N)=O)C(=O)O)C(=O)O)C(=O)O [compound 14] (Ac-LEGREKVRAK(Ac)I[Aib][Aib]EG[Nle]STWS[Aib]RKK(Ac)[AEEA][AEEA][AEEA]K([γGlu-γGlu-γGlu-Stearoyl])-NH2)
4000,3.96,3000,8,73,,,88,5600,5600,CCCCCCCCCCCCCCCCCC(=O)N[C@@H](CCC(=O)N[C@@H](CCC(=O)N[C@@H](CCC(=O)NCCCC[C@H](NC(=O)COCC(=O)NCCCOCCOCCOCCCNC(=O)COCC(=O)NCCCOCCOCCOCCCNC(=O)COCC(=O)NCCCOCCOCCOCCCNC(=O)[C@H](CCCCNC(C)=O)NC(=O)[C@H](CCCCN)NC(=O)[C@H](CCCNC(=N)N)NC(=O)C(C)(C)NC(=O)[C@H](CO)NC(=O)[C@H](Cc1c[nH]c2ccccc12)NC(=O)[C@@H](NC(=O)[C@H](CO)NC(=O)[C@H](CCCC)NC(=O)CNC(=O)[C@H](CCC(=O)O)NC(=O)C(C)(C)NC(=O)C(C)(C)NC(=O)[C@@H](NC(=O)[C@H](CCCCNC(C)=O)NC(=O)[C@H](C)NC(=O)[C@H](CCCNC(=N)N)NC(=O)[C@@H](NC(=O)[C@H](CCCCN)NC(=O)[C@H](CCC(=O)O)NC(=O)[C@H](CCCNC(=N)N)NC(=O)CNC(=O)[C@H](CCC(=O)O)NC(=O)[C@H](CC(C)C)NC(C)=O)C(C)C)[C@@H](C)CC)[C@@H](C)O)C(N)=O)C(=O)O)C(=O)O)C(=O)O [compound 20] (Ac-LEGREKVRAK(Ac)I[Aib][Aib]EG[Nle]STWS[Aib]RKK(Ac)-X2)
2900,8.96,1700,6,84,,,89,7000,7000,CCCCCCCCCCCCCCCC(=O)N[C@@H](CCC(=O)N[C@@H](CCC(=O)N[C@@H](CCC(=O)NCCCC[C@H](NC(=O)CCOCCOCCOCCOCCOCCOCCOCCOCCOCCOCCOCCOCCNC(=O)[C@H](CCCCN)NC(=O)[C@H](CCCNC(=N)N)NC(=O)C(C)(C)NC(=O)[C@H](CO)NC(=O)[C@H](Cc1c[nH]c2ccccc12)NC(=O)[C@@H](NC(=O)[C@H](CO)NC(=O)[C@H](CCSC)NC(=O)CNC(=O)[C@H](CCC(=O)O)NC(=O)C(C)(C)NC(=O)C(C)(C)NC(=O)[C@@H](NC(=O)[C@H](CCC(N)=O)NC(=O)[C@H](C)NC(=O)[C@H](CCCNC(=N)N)NC(=O)[C@@H](NC(=O)[C@H](CCCCN)NC(=O)[C@H](CCC(=O)O)NC(=O)[C@H](CCCNC(=N)N)NC(=O)CNC(=O)[C@H](CCC(=O)O)NC(=O)[C@H](CC(C)C)NC(C)=O)C(C)C)[C@@H](C)CC)[C@@H](C)O)C(N)=O)C(=O)O)C(=O)O)C(=O)O [compound 23] (Ac-LEGREKVRAQI[Aib][Aib]EGMSTWS[Aib]RK[PEG12]K([γGlu-γGlu-γGlu-Palmitoyl])-NH2)
,,,,,,,87,5600,5600,CCCCCCCCCCCCCCCCCC(=O)N[C@@H](CCC(=O)N[C@@H](CCC(=O)N[C@@H](CCC(=O)NCCCOCCOCCOCCCNC(=O)COCC(=O)NCCCOCCOCCOCCCNC(=O)COCC(=O)NCCCC[C@H](NC(=O)[C@H](CCCCNC(C)=O)NC(=O)[C@H](CCCCN)NC(=O)[C@H](CCCNC(=N)N)NC(=O)C(C)(C)NC(=O)[C@H](CO)NC(=O)[C@H](Cc1c[nH]c2ccccc12)NC(=O)[C@@H](NC(=O)[C@H](CO)NC(=O)[C@H](CCCC)NC(=O)CNC(=O)[C@H](CCC(=O)O)NC(=O)C(C)(C)NC(=O)C(C)(C)NC(=O)[C@@H](NC(=O)[C@H](CCCCNC(C)=O)NC(=O)[C@H](C)NC(=O)[C@H](CCCNC(=N)N)NC(=O)[C@@H](NC(=O)[C@H](CCCCN)NC(=O)[C@H](CCC(=O)O)NC(=O)[C@H](CCCNC(=N)N)NC(=O)CNC(=O)[C@H](CCC(=O)O)NC(=O)[C@H](CC(C)C)NC(C)=O)C(C)C)[C@@H](C)CC)[C@@H](C)O)C(N)=O)C(=O)O)C(=O)O)C(=O)O [compound 95] (Ac-LEGREKVRAK(Ac)I[Aib][Aib]EG[Nle]STWS[Aib]RKK(Ac)K(X7)-NH2)
,,,,,,0.15,98,5900,5900,CCCCCCCCCCCCCCCC(=O)N[C@@H](CCC(=O)NCCCC[C@H](NC(=O)CC[C@H](NC(=O)CC[C@H](NC(=O)COCCOCCNC(=O)COCCOCCNC(=O)COCCOCCNC(=O)[C@H](CCCCN)NC(=O)[C@H](CCCCN)NC(=O)[C@H](CCCCN)NC(=O)[C@H](CCCNC(=N)N)NC(=O)C(C)(C)NC(=O)[C@H](CO)NC(=O)[C@H](Cc1c[nH]c2ccccc12)NC(=O)[C@@H](NC(=O)[C@H](CO)NC(=O)[C@H](CCCC)NC(=O)CNC(=O)[C@H](CCC(=O)O)NC(=O)C(C)(C)NC(=O)C(C)(C)NC(=O)[C@@H](NC(=O)[C@H](CCC(N)=O)NC(=O)[C@H](C)NC(=O)[C@H](CCCNC(=N)N)NC(=O)[C@@H](NC(=O)[C@H](CCCCN)NC(=O)[C@H](CCC(=O)O)NC(=O)[C@H](CCCNC(=N)N)NC(=O)CNC(=O)[C@H](CCC(=O)O)NC(=O)[C@H](CC(C)C)NC(C)=O)C(C)C)[C@@H](C)CC)[C@@H](C)O)C(=O)O)C(=O)O)C(N)=O)C(=O)O [compound 109] (Ac-LEGREKVRAQI[Aib][Aib]EG[Nle]STWS[Aib]RKKK[AEEA][AEEA][AEEA][γGlu][γGlu]K([γGlu-Palmitoyl])-NH2)
